Test results as given in patent US20250057959A1, “PHOSPHANE GOLD(I)-N-HETEROCYCLIC CARBENE COMPLEXES FOR TREATING CANCER” (KING FAHD UNIVERSITY OF PETROLEUM AND MINERALS, priority 2023, published 2025).

Legend:
A2780 and A2780cis cells = assay: mitROS generation (MitoSOX red), flow cytometry; type: cell-based, human
Method: Results were detected by flow cytometry on a BD FACSCanto II flow cytometer. Data were analyzed using BD FACSDiva version 8.0.1 software (BD Biosciences) unless otherwise indicated. To evaluate apoptosis, tumor cells were treated for 48 hours and then stained for 15 minutes with FITC annexin-V (Thermo Fisher Scientific) and 7AAD (BD Pharmingen). […] For B-cell lymphoma/leukemia-2 (Bcl-2) and Bcl-2 associated x protein (Bax) evaluation, cells were fixed and permeabilized using FIX & PERM cell fixation and cell permeabilization kit (Life Technologies). […] The distribution of cells in different cell cycle phases was quantified using ModFit LT 4.0 software (Verity Software House, Topsham, ME, USA).

[1] = test system: adipose-derived stem cells (ADSCs); assay: Cell viability in normal adipose-derived stem cells; type: cell-based; conditions: 72 hours treatment, normal human cells
From the text: Human epithelial ovarian cancer A2780 cell line and its cisplatin-resistant clone A2780cis were obtained from Sigma-Aldrich (Milano, Italy). SKOV3 (HTB-77) cells were from the American Type Culture Collection (ATCC). The two cell lines were selected to reflect the two different stages of OvCa and different sensitivity to cisplatin. A2780 cell lines were derived from the ovarian tumor tissue of an untreated patient, while SKOV3 was from the ascitic fluids (after metastasis). Cells were authenticated in the laboratory using PowerPlex 16 HS system (Promega) and GeneMapper ID version 3.2.1 to identify DNA short tandem repeats. […]
4.0×10^3/mL A2780, A2780cis, and SKOV3 cells were seeded in 96-well microplates in 100 μL of culture medium. […] Cell viability was evaluated using 3-(4,5-dimethylthiazol-2-yl)-2,5-diphenyltetrazolium bromide (MTT) assay (Sigma-Aldrich) after 72 hours of treatment. Half maximal inhibitory concentrations (IC50) were calculated using the CalcuSyn software version 2 (Biosoft, Ferguson, MO, USA). Fold resistance was calculated as the ratio of the IC50 of the A2780cis to that of the parental cell line A2780.

OvCa cells = assay: Western blot of cell cycle regulatory proteins; type: cell-based, human; conditions: 24 hours
Method: Whole-cell lysates were prepared using cold RIPA buffer [150 mM NaCl, 50 mM Tris-HCl (pH 8), 0.1% SDS, 1% Igepal, and 0.5% desoxycholate sodium] containing a protease inhibitor cocktail (Roche Diagnostics S.p.a., Milan, Italy), phosphatase inhibitors 1 mM Na3VO4 and 1 mM NaF (Sigma-Aldrich). Protein concentrations were determined using the BioRad protein assay (Bio-Rad Laboratories, Inc., CA, USA). Equal amounts of proteins were mixed with Laemmli buffer, separated in 4-20% SDS-PAGE (Criterion Precast Gel, BioRad), and blotted onto a nitrocellulose membrane (Amersham, GE Healthcare). Membrane strips were blocked with EveryBilot blocking buffer (Bio-Rad) and incubated at 4° C. overnight with primary antibodies probed with the appropriate antibodies (Table 2) and developed using Immobilon Western chemioluminescent HRP substrate. Images were acquired using a ChemiDoc XRS system (Bio-Rad).

A2780cis = assay: MTT cell viability assay, cisplatin-resistant A2780cis; type: cell-based, human; conditions: for Fold resistance (A2780cis/A2780): IC50 A2780cis/IC50 A2780
From the text: Human epithelial ovarian cancer A2780 cell line and its cisplatin-resistant clone A2780cis were obtained from Sigma-Aldrich (Milano, Italy). SKOV3 (HTB-77) cells were from the American Type Culture Collection (ATCC). The two cell lines were selected to reflect the two different stages of OvCa and different sensitivity to cisplatin. A2780 cell lines were derived from the ovarian tumor tissue of an untreated patient, while SKOV3 was from the ascitic fluids (after metastasis). […] Cell lines were cultured in RPMI-1640 medium containing 10% fetal bovine serum (FBS) (Gibco, Thermo Fisher Scientific, U.S.A), 1% (v/v) of penicillin (10,000 units/mL)-streptomycin (10 mg/mL), and 1% (v/v) L-glutamine (200 mM) (all from Sigma- Aldrich) at 37° C. in a 5% CO2 fully humidified atmosphere. […] Cisplatin was included as a reference drug. […] Fold resistance was calculated as the ratio of the IC50 of the A2780cis to that of the parental cell line A2780.

[2] = test system: thioredoxin reductase (TrxR); conditions: OvCa cells treated 24 hours
Method: To evaluate both the thioredoxin reductase (TrxR) and proteasome activity, cells were treated with complex 6 for 24 hours and then lysed in 50 mM Tris-HCl, pH 7.6, 0.1% Triton X-100, 0.9% NaCl. TrxR (EC 1.8.1.9) was assayed using thioredoxin reductase assay kit (Sigma-Aldrich). Enzyme activity was determined by reading the absorbance at 412 nm using a spectrophotometer (Biomate 3 Thermo Spectronic, Thermo Electonic Corporation, Monza, Italy).
The enzymatic activity was normalized to the protein concentration and determined using the Bio-Rad protein assay (protein assay dye reagent concentrate, Bio-Rad Laboratories, Segrate, Italy).

[3] = test system: tumor xenografts derived from SKOV3 cells; assay: SKOV3 xenograft tumor growth in athymic nude mice; type: in vivo; conditions: two injections/week
Method: (§1) Animal experimentation was reviewed and approved by Centro di Riferimento Oncologico di Aviano (CRO) Institutional Organism for Animal Wellbeing (OPBA) and approved by the Italian Ministry of Health (No. 671/2015/PR). All animal experiments were conducted in adherence to the international and institutional committees' ethical guidelines. Ten 4-week-old female athymic nude NU(NCr)-Foxn1^nu mice were purchased from Charles Rivers (Lecco, Italy). SKOV3 (10×10^6 cells/animal) were suspended in BD Matrigel basement membrane matrix (BD Biosciences) (diluted 1:3 in PBS) and inoculated into the animals' right flank. When tumors were palpable, animals were divided into two groups of five mice each, and treated with intratumoral injection of complex 6 (2 mg/kg) or vehicle (10% DMSO, 20% Cremophor Sigma-Aldrich, 70% PBS) two times a week. Body weight and tumors were examined regularly. Tumor size was measured using a digital caliper, and volumes were calculated according to the formula (width^2×length×3.14)/6.

[4] = Body weight and physical inspection of xenografted mice; type: in vivo; conditions: 2 mg/kg intratumoral, two injections/week
Method: as §1

## CC(C)c1cccc(C(C)C)c1-n1ccn(-c2c(C(C)C)cccc2C(C)C)[c]1=[Au+][PH](C1CCCCC1)(C1CCCCC1)C1CCCCC1.F[P-](F)(F)(F)(F)F [Complex 6, [Au(IPr)(C18H33P)] PF6]
A2780 and A2780cis cells
  mitROS generation: increased mitochondrial ROS (mitROS) generation in a dose-dependent manner
[1]
  IC50: 2500 nM
OvCa cells
  Expression of G1/S phase proteins (CDKs, cyclins, E2F1, pRB): down-regulated the expression of CDk2, CDk4, CDk6, CycE, CycD1, CycD3
  Expression of cyclin D regulators: increased the expression of Foxo3A and pGSK-30 and decreased that of Cdc25a, PI3KI, pERK1/2, and bRAF
A2780cis; 72 hours treatment, MTT
  IC50: 120 ± 10 nM
A2780cis
  Fold resistance (A2780cis/A2780): 0.86
A2780cis; listed as complex 6
  Fold resistance (A2780cis/A2780): 0.86
[2]
  TrxR enzymatic activity: did not modify its enzymatic activity
[3]; 2 mg/kg intratumoral
  Reduction of tumor volume with respect to vehicle-treated mice: more than 80%
  Tumor mass weight: reduced
[3]; day 35, 2 mg/kg intratumoral, control 869.5±61.9
  Mean tumor volume: 155.8±84.5 mm^3
[4]
  Physical inspection and body weight: normal to physical inspection with a comparable weight with respect to untreated mice
